US20140088027A1, “PHARMACEUTICAL COMPOSITION COMPRISING AN SGLT2 INHIBITOR AND A PPAR- GAMMA AGONIST AND USES THEREOF” (BOEHRINGER INGELHEIM INTERNATIONAL GMBH, priority 2010, published 2014)

Legend:
[1] = Body composition (FoodScan NIR) in cafeteria-diet obese female Wistar rats; assay type: in vivo, rat; conditions: 10 mg/kg po once daily, carcass analysis at Day 31
Experimental: (§1) An animal model of obesity was used to study the effect of Cpd. A, Pioglitazone or the combination of Cpd. A with Pioglitazone on body weight and total body fat content. For this, female Wistar rats were made obese by exposure to a simplified cafeteria diet containing high fat chow, chocolate and ground peanuts for approximately 19 weeks. Following the induction of obesity, rats were given vehicle (0.5% aqueous hydroxyethylcellulose) for 7 days and were then dosed orally once-daily with either vehicle, 10 mg/kg Cpd. A, 10 mg/kg Pioglitazone, or the combination of Cpd. A and Pioglitazone for 29 days. For the duration of the study rats were maintained on cafeteria diet.
At the end of the study on Day 31 (24 hours after the last treatment on Day 30) all rats were terminated, the body exsanguinated and the following tissues removed: the caudate liver lobe, the pancreas, the kidneys. Body composition (body fat, protein and water) was determined using the FoodScan NIR (near infra-red) meat analyser (Foss UK). This machine has AOAC (Association of Official Analytical Chemists) approval as reference method for the analysis of moisture, fat and protein in meat. The carcasses were milled under liquid nitrogen and a portion of the milled carcass was analysed in the FoodScan Analyser.
Results are the percentage reduction in each parameter when compared to control and presented along with the corresponding percentage reduction in carcass weight compared to the vehicle-treated control group. Body composition (body fat, protein and water) was determined using the FoodScan NIR (near infra-red) meat analyser (Foss UK).

[2] = Body weight in cafeteria-diet obese female Wistar rats; assay type: in vivo, rat; conditions: obese female Wistar rats on cafeteria diet, 28 day treatment
Experimental: as §1
In FIG. 1, results are mean body weights (adjusted for differences between the body weights of the different treatment groups at baseline (Day 1))±SEM (calculated from the residuals of the statistical model), n=10) after 28 day once-daily oral treatment with the glucopyranosyl-substituted benzene derivative (Cpd. A), Pioglitazone or the combination of both Cpd. A and Pioglitazone at the indicated doses.
Body weight data were analyzed by unpaired t-test. […] Combination of Cpd.

[3] = system: Zucker diabetic fatty rats (ZDF/Crl-Lepr^fa); assay: Blood glucose time course in male Zucker diabetic fatty rats; assay type: in vivo, rat; conditions: freely fed, 2 h after dosing, two weeks once daily po, Cpd. A 1 mg/kg, pioglitazone 10 mg/kg
Source text: The SGLT2 inhibitor is the glucopyranosyl-substituted benzene derivative described as compound (I.9) hereinabove and referred to as “Cpd. A” in the following. The PPARγ agonist is pioglitazone. All experimental protocols concerning the use of laboratory animals were reviewed by a federal Ethics Committee and approved by governmental authorities. The time course of blood glucose was followed over a treatment period of 2 weeks in male Zucker diabetic fatty rats (ZDF/Crl-Lepr^fa) with an age of 10 weeks at the start of the study. A pre-dose blood sample was obtained by tail bleed (day 0) and blood glucose was measured with a glucometer. From day 1 to day 15, the animals (n=5/group) received once daily oral administrations of either vehicle alone (0.5% aqueous hydroxyethylcellulose) or this vehicle containing either Cpd. A or pioglitazone or the combination of the Cpd. A with pioglitazone. Blood glucose was measured in tail blood 2 h after dosing in freely fed animals. The data are presented as mean±S.E.M. Statistical comparison was conducted by repeated measures two-way ANOVA followed by Bonferroni post tests for group-wise comparisons. A p value <0.05 was considered to show a statistically significant difference.
Cpd. A is Cpd. A described as compound (I.9) hereinabove at a dose of 1 mg/kg. Pioglitazone was dosed at 10 mg/kg. Combination Cpd. […]

[4] = Plasma insulin in cafeteria-diet obese female Wistar rats; assay type: in vivo, rat; conditions: fed, 10 mg/kg po once daily each, after 28/29 days
Experimental: as §1
After 28 days of treatment, blood samples were collected from the tail vein (from fed animals) for analysis of insulin. Plasma insulin values were determined by using a Millipore Luminex RENDO 85K kit.
In FIG. 2, results are mean plasma insulin levels±SEM after 29 days of once-daily oral treatment with the glucopyranosyl-substituted benzene derivative (Cpd. A), Pioglitazone or the combination of both Cpd. A and Pioglitazone at the indicated doses. Plasma insulin values were analyzed by unpaired t-test. P values versus vehicle control are indicated by symbols above the bars (*, p<0.05; **, p<0.01; ***, p<0.001). […] Combination of Cpd.

[5] = metformin on its own, in the diabetic; cited from earlier work

SMILES | Carcass weight (%), percentage reduction compared to vehicle-treated control [1] [%] | Fat (%), percentage reduction compared to control [1] [%] | Protein (%), percentage reduction compared to control [1] [%] | Water (%), percentage reduction compared to control [1] [%] | reduction of body weight compared to vehicle-treated control ([2]; 10 mg/kg po once daily) [%] | reduction of blood glucose [3] [%] | plasma insulin levels versus vehicle control [4] | increase of body weight compared to vehicle-treated control animals ([2]; 10 mg/kg po once daily each) [%] | average improvement in the HbA1c value [5]
OC[C@H]1O[C@@H](c2ccc(Cl)c(Cc3ccc(O[C@H]4CCOC4)cc3)c2)[C@H](O)[C@@H](O)[C@@H]1O [Cpd. A] | −3.5 | −4.5 | −1.5 | −0.3 | 3.1 | 37 | reduced the plasma insulin levels significantly | – | –
CCc1ccc(CCOc2ccc(CC3SC(=O)NC3=O)cc2)nc1 (centres unmarked) [Pioglitazone, pioglitazone] | 6.2 | 15.4 | 1.1 | 3.6 | – | 48 | – | 6.8 | –
CN(C)C(=N)N=C(N)N [metformin] | – | – | – | – | – | – | – | – | 1.0-1.5%
